Measurements: patent US12459930B2, “Compounds for the inhibition of unregulated cell growth” (GODAVARI BIOREFINERIES LIMITED, priority 2018, dated 2025)
Like-named read-outs stand apart in the source and are kept apart here.

Tests used:
[1] = test system: MDAMB231 breast cancer cell line; assay: Soft agar colony-formation assay, MDAMB231; format: cell-based; settings: Homo sapiens, MDA-MB-231, 168 h, 1 week, Alamar Blue, read-out: IC50 in micromolar, MDAMB231 (Soft Agar Assay)
In short: (§1)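 Cells were embedded with drug in a top soft-agar layer over an agar base in 96-well format. Colonies grew for 1 week at 37 °C, 5% CO2, with medium feeding at day 3. Alamar Blue was added for 24 h, absorbance read at 630 nm, and log percent viability plotted against log drug concentration.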

[2] = test system: DU145 prostate cancer cell line; assay: In vitro antiproliferative assay (MTT assay), DU145; format: cell-based; settings: Homo sapiens, DU-145, 48 h, 48 hrs drug incubation, read-out: IC50 in micromolar, DU145 (MTT assay)
In short: (§2)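 Compound exposure lasted 48 h at 37 °C in 5% CO2, following a 24 h attachment period; DMSO stocks were 0.1 M. Metabolic reduction of MTT (0.5 mg/ml, 4 h), solubilized in DMSO, gave viability, plotted as log % viability versus log drug concentration.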

[3] = test system: PC3 spheres (cancer stem cells); settings: human, 216 h
[4] = test system: MDAMB231 breast cancer cell line; assay: In vitro antiproliferative assay (MTT assay), MDAMB231; format: cell-based; settings: 48 hrs drug incubation, read-out: IC50 in micromolar, MDAMB231 (MTT assay)
In short: as §2

[5] = test system: PC3 prostate cancer cell line; assay: Soft agar colony-formation assay, PC3; format: cell-based; settings: 168 h, 1 week, Alamar Blue, read-out: IC50 in micromolar, PC3 (Soft Agar Assay)
In short: as §1

[6] = test system: PC3 spheres (cancer stem cells); assay: In vitro sphere-forming assay (cancer stem cells), PC3 in Prostosphere media; settings: for 3D sphere count of PC3 in Prostosphere media: 2000 cells/well, n = 6 ± S.D; for viability at 0.0025 µM: read-out: % Viability of spheres (PC3), 0.0025 uM
[7] = test system: MDAMB231 spheres (cancer stem cells); assay: In vitro sphere-forming assay (cancer stem cells), MDAMB231 in Mammosphere media; settings: for 3D sphere count of MDAMB231 in Mammosphere media: 2000 cells/well, n = 6 ± S.D; for viability at 0.0025 µM / viability at 0.025 µM / viability at 0.25 µM / viability at 2.5 µM / viability at 25 µM: Homo sapiens, MDA-MB-231, read-out: % Viability of spheres (MDAMB231)
[8] = test system: PC3 prostate cancer cell line; assay: In vitro antiproliferative assay (MTT assay), PC3; format: cell-based; settings: 48 h, 48 hrs drug incubation, read-out: IC50 in micromolar, PC3 (MTT assay)
In short: as §2

| SMILES | IC50 [1] [µM] | IC50 [2] [µM] | IC50 [5] [µM] | 3D sphere count of PC3 in Prostosphere media ([6]; 0.0025 uM) | 3D sphere count of PC3 in Prostosphere media ([6]; 0.025 uM) | 3D sphere count of PC3 in Prostosphere media ([6]; 0.25 uM) | 3D sphere count of PC3 in Prostosphere media ([6]; 2.5 uM) | 3D sphere count of PC3 in Prostosphere media ([6]; 25 uM) | viability at 0.0025 µM ([6]; GCD = 100% viability) [%] | 3D sphere count of MDAMB231 in Mammosphere media ([7]; 0.0025 uM) | 3D sphere count of MDAMB231 in Mammosphere media ([7]; 0.025 uM) | 3D sphere count of MDAMB231 in Mammosphere media ([7]; 0.25 uM) | 3D sphere count of MDAMB231 in Mammosphere media ([7]; 2.5 uM) | 3D sphere count of MDAMB231 in Mammosphere media ([7]; 25 uM) | viability at 0.0025 µM [7] [%] | viability at 0.025 µM [7] [%] | viability at 0.25 µM [7] [%] | viability at 2.5 µM [7] [%] | viability at 25 µM [7] [%] | IC50 [8] [µM] | also measured |
| --- | --- | --- | --- | --- | --- | --- | --- | --- | --- | --- | --- | --- | --- | --- | --- | --- | --- | --- | --- | --- | --- |
| COc1cc2c(OCCCCN3CCOCC3)c3c(c(-c4ccc5c(c4)OCO5)c2cc1OC)C(=O)OC3.Cl [Formula VII, 4-(4-morpholinobutoxy)-9-(benzo[d][1,3]dioxol-5-yl)-6,7-dimethoxynaphtho[2,3-c]furan-1(3H)-one Hydrochloride] | 2.05 | 2.34 | 2.7 | 56(±3) | 46(±3) | 41(±3) | 37(±2) | 32(±3) | 69 | 58(±3) | 47(±3) | 36(±3) | 29(±3) | 21(±2) | 81 | 66 | 50 | 41 | 29 | 2.75 | % Viability of spheres (PC3) ([3]; 0.025 µM): 59(±3) %; % Viability of spheres (PC3) ([3]; 0.25 µM): 50(±2) %; % Viability of spheres (PC3) ([3]; 2.5 µM): 44(±2) %; % Viability of spheres (PC3) ([3]; 25 µM): 34(±3) %; IC50 ([4]; hydrochloride): 3.27 µM |
| CN1CCN(CCCCOc2ccc(-c3ccc4c(c3)OCO4)c3c2CCCC3)CC1 [Formula XIX, 1-(4-(5-(benzo[d][1,3]dioxol-5-yl)-1,2,3,4-tetrahydronaphthalen-8-yloxy)butyl)-4-methylpiperazine] | 3.41 | 2.04 | 5.12 | 51(±3) | 40(±3) | 35(±3) | 25(±3) | 13(±2) | 62 | 48(±4) | 40(±4) | 34(±3) | 23(±5) | 13(±2) | 61 | 50 | 43 | 29 | 16 | 3.71 | IC50 ([4]; Homo sapiens, MDA-MB-231, 48 h): 2.14 µM; viability at 0.025 µM ([6]; read-out: % Viability of spheres (PC3), 0.025 uM, GCD = 100% viability): 48%; viability at 0.25 µM ([6]; read-out: % Viability of spheres (PC3), 0.25 uM, GCD = 100% viability): 42%; viability at 2.5 µM ([6]; read-out: % Viability of spheres (PC3), 2.5 uM, GCD = 100% viability): 30%; viability at 25 µM ([6]; read-out: % Viability of spheres (PC3), 25 uM, GCD = 100% viability): 15% |
